# Experimental data as given in PMC9837035 (Nature Communications, 2023).
# “And” between values parts separate entries of the source, which are not always exact repeats. Identical values can stand only once. Like-named read-outs stand apart in the source and are kept apart here.
# Columns and labels:
# Aqueous solubility = assay type: physicochemical; parameters: Solubility in PBS (pH = 7.4): unit: uM; conditions: for solubility at 1 h: phosphate buffer
# Experimental: The direct UV kinetic solution method was performed in duplicate. A 10 mM DMSO solution of compound was added to a microtube containing aqueous pH 7.4 or pH 6.8 phosphate buffer solution (maximum concentration: 200 μM). The solution mixture was vigorously shaken at ambient temperature for 1 h. The precipitate was removed by centrifugal separation, and the UV absorbance of the supernatant and the standard solution prepared by the test compound for calibration were measured in duplicate using a 96-well UV plate reader, SPECTRA MAX190 (Molecular Devices).
# PRMT8 = PRMT8 (Homo sapiens, UniProt Q9NR22); test: biochemical
# PRMT1 = PRMT1 (Homo sapiens, UniProt Q99873)
# G9a = biological target: T1, G9a (Homo sapiens, UniProt Q96KQ7); test: Radioisotope-based methyltransferase assay (selectivity); conditions: 1 μM SAM
# T1 sequence (Q96KQ7 1-1210): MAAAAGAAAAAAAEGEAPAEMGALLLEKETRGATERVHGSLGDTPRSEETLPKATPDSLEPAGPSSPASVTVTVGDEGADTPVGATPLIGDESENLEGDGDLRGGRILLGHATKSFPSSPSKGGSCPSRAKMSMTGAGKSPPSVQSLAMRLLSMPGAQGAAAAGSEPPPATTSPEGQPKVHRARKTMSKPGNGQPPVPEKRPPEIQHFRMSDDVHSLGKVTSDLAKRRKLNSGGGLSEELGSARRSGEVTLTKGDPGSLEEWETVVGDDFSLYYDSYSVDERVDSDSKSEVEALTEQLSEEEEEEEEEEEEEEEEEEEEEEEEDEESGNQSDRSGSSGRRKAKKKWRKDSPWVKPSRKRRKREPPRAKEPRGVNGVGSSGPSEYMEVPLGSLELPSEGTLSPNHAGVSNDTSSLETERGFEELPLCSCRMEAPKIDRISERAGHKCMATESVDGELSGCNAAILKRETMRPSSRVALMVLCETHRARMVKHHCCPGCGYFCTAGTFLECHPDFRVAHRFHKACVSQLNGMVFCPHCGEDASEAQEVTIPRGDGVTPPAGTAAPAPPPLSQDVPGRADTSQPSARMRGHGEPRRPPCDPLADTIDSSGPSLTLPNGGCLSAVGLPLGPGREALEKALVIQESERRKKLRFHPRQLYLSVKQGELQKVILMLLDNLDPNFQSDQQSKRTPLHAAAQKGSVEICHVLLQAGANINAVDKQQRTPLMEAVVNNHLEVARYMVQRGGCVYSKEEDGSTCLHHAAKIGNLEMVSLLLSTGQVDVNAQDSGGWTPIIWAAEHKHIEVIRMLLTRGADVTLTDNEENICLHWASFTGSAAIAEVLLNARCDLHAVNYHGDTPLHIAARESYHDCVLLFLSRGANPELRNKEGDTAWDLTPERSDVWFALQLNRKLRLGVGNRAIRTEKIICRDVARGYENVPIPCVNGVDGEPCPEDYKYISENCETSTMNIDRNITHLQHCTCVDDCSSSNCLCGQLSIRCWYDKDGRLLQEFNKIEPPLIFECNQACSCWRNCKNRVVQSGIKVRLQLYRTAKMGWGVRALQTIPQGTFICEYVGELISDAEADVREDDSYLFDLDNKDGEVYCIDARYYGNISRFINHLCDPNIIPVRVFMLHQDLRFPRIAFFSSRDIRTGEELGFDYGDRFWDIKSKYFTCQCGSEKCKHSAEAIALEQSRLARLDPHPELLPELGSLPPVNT
# [1] = Caco-2 permeability assay; assay type: in vitro ADME; conditions: human
# Caco-2 = Caco-2 permeability assay; assay type: in vitro ADME; conditions: replicate values
# NSD2 (T1150A) = NSD2 (T1150A) (Homo sapiens, UniProt O96028, T1150A); test: Radioisotope-based methyltransferase assay (selectivity)
# NSD2 (E1099K) = NSD2 (E1099K) (Homo sapiens, UniProt O96028, E1099K)
# EZH2 (Y641F) = EZH2 (Y641F) (Homo sapiens, UniProt Q15910, Y641F); test: biochemical
# ASH1L = biological target: T2, ASH1L (Homo sapiens, UniProt Q9NR48); test: Radioisotope-based methyltransferase assay (selectivity); assay type: biochemical; conditions: ASH1L, read-out: IC50
# T2 construct: purchased Reaction Biology
# [2] = Body weight of mice during 5-week administration; assay type: in vivo
# Experimental: The dosing solution contained 15% DMSO, 17.5% Cremophor EL, 8.75% EtOH, 8.75% HCO-40, and 50% PBS. Blood samples were collected once a week by Retro Orbital Sampling (75 μL Calibrated Micropipette; Drummond Scientific Company) during isoflurane anesthesia. Blood RNA was extracted using NucleoSpin RNA Blood (Takara Bio Inc.). The weight of each mouse was measured every 3 or 4 days.
# PRMT8, sequence (Q9NR22 whole entry): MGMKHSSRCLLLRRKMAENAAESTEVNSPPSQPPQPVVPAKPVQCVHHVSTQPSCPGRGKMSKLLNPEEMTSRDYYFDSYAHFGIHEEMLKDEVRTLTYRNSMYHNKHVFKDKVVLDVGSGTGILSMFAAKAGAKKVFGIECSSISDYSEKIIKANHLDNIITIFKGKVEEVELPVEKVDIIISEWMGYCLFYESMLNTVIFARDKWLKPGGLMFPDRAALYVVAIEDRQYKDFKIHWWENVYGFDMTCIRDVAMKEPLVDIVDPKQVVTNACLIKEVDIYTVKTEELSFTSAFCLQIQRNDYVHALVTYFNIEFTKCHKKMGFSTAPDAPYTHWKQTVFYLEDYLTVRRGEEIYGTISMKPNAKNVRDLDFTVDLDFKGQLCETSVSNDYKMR
# NSD2 (T1150A), sequence (O96028 whole entry T1150A): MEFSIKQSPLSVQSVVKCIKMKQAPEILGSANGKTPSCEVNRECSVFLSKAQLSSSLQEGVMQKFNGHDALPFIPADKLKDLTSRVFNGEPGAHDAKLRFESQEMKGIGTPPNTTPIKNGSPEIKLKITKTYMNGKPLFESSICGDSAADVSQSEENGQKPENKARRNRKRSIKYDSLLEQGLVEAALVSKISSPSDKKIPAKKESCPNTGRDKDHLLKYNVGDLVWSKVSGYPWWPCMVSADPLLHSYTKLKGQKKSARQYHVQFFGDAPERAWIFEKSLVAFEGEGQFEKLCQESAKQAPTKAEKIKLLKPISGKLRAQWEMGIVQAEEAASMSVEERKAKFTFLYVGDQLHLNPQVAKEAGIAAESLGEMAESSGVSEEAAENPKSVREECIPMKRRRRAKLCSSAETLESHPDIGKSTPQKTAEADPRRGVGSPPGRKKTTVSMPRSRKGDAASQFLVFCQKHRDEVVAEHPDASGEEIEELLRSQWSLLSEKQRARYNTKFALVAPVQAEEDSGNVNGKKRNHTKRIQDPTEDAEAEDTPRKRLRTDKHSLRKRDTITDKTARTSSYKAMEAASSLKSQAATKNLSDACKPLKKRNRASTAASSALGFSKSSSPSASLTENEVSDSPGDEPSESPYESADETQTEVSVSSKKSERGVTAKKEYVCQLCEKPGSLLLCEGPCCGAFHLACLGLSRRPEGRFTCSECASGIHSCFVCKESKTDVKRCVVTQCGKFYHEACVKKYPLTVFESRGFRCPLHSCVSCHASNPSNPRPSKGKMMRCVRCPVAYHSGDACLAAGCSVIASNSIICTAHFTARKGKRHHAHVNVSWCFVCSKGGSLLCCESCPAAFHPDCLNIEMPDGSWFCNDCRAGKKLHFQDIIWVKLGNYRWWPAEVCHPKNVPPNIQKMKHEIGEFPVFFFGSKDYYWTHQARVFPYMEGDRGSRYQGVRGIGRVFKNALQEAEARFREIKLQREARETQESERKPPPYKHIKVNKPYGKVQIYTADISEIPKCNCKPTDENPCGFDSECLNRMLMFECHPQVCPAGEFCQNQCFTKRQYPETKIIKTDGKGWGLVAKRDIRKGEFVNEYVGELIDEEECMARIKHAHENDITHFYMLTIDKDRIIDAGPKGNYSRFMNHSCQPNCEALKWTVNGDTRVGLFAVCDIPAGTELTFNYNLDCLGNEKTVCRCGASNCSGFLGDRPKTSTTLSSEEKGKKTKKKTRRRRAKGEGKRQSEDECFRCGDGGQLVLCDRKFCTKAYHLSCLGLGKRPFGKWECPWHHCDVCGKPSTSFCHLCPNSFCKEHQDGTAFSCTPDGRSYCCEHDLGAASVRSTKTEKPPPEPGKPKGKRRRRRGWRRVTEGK
# EZH2 (Y641F), sequence (Q15910 whole entry Y641F): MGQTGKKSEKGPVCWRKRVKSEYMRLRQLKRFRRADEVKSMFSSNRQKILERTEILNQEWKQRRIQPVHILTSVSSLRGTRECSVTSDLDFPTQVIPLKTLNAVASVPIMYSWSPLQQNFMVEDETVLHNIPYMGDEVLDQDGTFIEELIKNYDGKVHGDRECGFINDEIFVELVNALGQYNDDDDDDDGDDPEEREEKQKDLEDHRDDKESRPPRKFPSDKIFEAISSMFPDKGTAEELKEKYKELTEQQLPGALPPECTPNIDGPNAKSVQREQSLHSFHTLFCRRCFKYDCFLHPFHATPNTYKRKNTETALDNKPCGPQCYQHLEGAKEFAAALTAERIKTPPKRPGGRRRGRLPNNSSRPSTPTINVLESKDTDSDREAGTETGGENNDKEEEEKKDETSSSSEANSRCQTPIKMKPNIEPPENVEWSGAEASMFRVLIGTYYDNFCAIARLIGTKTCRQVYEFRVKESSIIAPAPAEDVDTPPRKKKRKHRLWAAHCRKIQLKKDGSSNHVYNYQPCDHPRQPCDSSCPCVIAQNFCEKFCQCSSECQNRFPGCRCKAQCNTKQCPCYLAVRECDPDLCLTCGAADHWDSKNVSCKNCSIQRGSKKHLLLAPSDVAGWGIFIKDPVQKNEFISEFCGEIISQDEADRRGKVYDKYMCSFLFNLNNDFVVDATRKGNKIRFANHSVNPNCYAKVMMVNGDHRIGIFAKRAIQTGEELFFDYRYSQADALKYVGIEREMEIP
# EZH2 (Y641F), sequence (O75530 whole entry partner): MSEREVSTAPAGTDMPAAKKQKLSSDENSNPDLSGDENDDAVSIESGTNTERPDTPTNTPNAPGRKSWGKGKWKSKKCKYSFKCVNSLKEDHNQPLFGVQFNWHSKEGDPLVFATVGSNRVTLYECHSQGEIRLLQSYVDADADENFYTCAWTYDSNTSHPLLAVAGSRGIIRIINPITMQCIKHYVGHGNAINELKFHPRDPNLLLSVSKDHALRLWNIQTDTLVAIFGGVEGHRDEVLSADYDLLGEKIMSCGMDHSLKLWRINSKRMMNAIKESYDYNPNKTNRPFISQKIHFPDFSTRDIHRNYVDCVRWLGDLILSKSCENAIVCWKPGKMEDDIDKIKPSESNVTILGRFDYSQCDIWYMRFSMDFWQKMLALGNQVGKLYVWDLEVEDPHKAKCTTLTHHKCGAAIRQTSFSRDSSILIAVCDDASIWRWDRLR
# EZH2 (Y641F), sequence (Q15022 whole entry partner): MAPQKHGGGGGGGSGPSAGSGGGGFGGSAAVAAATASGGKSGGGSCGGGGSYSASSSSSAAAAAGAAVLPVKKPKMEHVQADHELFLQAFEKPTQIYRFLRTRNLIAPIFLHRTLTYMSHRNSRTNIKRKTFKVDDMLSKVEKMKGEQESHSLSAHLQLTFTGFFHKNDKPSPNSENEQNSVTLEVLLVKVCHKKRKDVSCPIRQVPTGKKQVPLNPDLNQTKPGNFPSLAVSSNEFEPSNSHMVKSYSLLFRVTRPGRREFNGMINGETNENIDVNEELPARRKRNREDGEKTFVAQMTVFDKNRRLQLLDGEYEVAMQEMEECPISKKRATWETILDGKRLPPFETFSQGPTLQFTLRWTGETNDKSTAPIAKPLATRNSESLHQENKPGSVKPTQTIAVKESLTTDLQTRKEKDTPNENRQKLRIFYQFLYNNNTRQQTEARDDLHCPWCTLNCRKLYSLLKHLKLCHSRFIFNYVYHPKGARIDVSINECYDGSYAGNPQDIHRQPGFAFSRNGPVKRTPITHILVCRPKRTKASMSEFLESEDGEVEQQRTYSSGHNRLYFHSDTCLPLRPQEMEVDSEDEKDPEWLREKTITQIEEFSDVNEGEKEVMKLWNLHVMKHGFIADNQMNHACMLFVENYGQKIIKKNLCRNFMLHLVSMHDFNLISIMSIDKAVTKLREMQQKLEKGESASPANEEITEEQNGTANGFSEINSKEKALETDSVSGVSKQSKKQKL
# EZH2 (Y641F), sequence (Q09028 whole entry partner): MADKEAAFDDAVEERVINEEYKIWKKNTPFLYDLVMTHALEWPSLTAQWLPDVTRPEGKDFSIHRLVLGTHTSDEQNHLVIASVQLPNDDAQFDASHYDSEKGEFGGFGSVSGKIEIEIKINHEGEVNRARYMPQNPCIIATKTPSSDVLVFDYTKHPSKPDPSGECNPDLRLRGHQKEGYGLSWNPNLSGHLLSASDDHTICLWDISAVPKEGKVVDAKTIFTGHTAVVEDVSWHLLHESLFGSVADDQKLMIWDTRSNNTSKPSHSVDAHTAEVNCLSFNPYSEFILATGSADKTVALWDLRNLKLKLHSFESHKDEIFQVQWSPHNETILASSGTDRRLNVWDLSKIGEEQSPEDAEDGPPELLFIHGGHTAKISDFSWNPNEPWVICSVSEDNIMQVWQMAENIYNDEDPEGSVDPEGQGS
# EZH2 (Y641F), sequence (Q6ZN18 whole entry partner): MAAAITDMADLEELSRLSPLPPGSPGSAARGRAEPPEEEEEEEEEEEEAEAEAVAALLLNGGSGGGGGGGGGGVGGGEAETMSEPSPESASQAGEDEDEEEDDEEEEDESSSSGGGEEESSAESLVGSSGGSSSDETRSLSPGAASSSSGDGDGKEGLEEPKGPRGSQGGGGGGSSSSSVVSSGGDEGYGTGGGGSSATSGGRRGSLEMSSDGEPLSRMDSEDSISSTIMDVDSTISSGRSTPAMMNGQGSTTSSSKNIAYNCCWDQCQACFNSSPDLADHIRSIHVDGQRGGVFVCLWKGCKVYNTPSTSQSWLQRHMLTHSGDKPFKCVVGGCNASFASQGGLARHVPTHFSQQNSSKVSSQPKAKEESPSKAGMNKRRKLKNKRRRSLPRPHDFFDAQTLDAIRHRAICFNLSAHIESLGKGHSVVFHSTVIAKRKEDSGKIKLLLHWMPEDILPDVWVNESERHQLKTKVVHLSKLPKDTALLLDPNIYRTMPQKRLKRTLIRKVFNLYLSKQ
# NSD2 (E1099K), sequence (O96028 whole entry E1099K): as the sequence (O96028 whole entry T1150A) above, with E1099K, A1150T counted along it
# PRMT1, sequence (Q99873 whole entry): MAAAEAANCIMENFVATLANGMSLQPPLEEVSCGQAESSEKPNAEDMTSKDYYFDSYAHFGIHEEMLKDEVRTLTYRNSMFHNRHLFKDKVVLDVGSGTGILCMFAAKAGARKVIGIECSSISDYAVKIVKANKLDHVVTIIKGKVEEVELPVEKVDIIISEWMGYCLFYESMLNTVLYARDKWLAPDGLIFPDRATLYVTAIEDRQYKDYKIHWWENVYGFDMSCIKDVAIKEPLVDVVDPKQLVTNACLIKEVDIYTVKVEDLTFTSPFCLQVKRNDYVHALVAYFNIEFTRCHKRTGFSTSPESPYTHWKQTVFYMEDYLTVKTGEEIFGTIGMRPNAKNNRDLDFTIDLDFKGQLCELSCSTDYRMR
structure (smiles),measurement,setting,value
Cc1c(C(=O)NC(CCC2CC2)C(=O)Nc2ccc(C#N)cc2)[nH]c2c1C(=O)CC(C)(C)C2 (stereo not shown) [RK-701],Solubility in PBS (pH = 6.8),"Aqueous solubility; PBS pH = 6.8, replicate values",31.5 and 23.5 and 26.4
same,Solubility in PBS (pH = 7.4),"Aqueous solubility; PBS pH = 7.4, replicate values",10.4542 and 12.4313 and 11.5534 and 10.9261 and 15.3115 and 10.1928 and 7.42 and 8.729
same,solubility at 1 h,"Aqueous solubility; pH 6.8, PBS pH = 6.8, replicate values, read-out: Solubility in PBS (pH = 6.8)",23.9 µM
same,solubility at 1 h,"Aqueous solubility; pH 6.8, pH6.8, read-out: Solubility in PBS",26.3 ± 3.2 µM
same,solubility at 1 h,"Aqueous solubility; pH 7.4, pH7.4, read-out: Solubility in PBS",10.9 ± 2.2 µM
same,IC50,PRMT8,> 100 µM
same,IC50,PRMT1,> 100 µM
same,IC50,G9a,0.023 µM
same,Papp A→B,"[1]; Caco-2, A to B, replicate values, read-out: Papp A to B",4.8 ×10⁻⁶ cm/s
same,Papp A→B,"[1]; Caco-2, Apical to Basal, read-out: Caco-2 permeability Papp A to B",5.23 ± 0.47 ×10⁻⁶ cm/s
same,Papp B→A,"[1]; Caco-2, B to A, replicate values, read-out: Papp B to A",19.5 ×10⁻⁶ cm/s
same,Papp B→A,"[1]; Caco-2, Basal to Apical, read-out: Caco-2 permeability Papp B to A",18.9 ± 0.92 ×10⁻⁶ cm/s
same,Papp A to B,Caco-2; A to B,5.724 and 5.177
same,Papp B to A,Caco-2; B to A,17.8638 and 19.3603
same,IC50,NSD2 (T1150A),> 100 µM
same,IC50,NSD2 (E1099K),> 100 µM
same,IC50,EZH2 (Y641F),> 100 µM
same,IC50,ASH1L; 1 μM SAM,79.4 µM
same,IC50,ASH1L; RK-701 in duplicate,80.4 µM and 78.4 µM
same,body weight of individual mice,"[2]; 20 mg/kg i.p., Day 0",17.8 g and 17.5 g and 16.8 g and 16.2 g and 16.4 g
same,body weight of individual mice,"[2]; 20 mg/kg i.p., Day 4",18.5 g and 17.7 g and 17.3 g and 17.2 g and 16.8 g and 17.4 g
same,body weight of individual mice,"[2]; 20 mg/kg i.p., Day 8",18.4 g and 18.1 g and 17.4 g and 17.7 g and 16.7 g and 17.8 g
same,body weight of individual mice,"[2]; 20 mg/kg i.p., Day 11",18.6 g and 18.2 g and 17.5 g and 17.6 g and 16.5 g and 17.1 g
same,body weight of individual mice,"[2]; 20 mg/kg i.p., Day 15",18.7 g and 18.1 g and 17.7 g and 18.2 g and 16.6 g
same,body weight of individual mice,"[2]; 20 mg/kg i.p., Day 18",19.3 g and 18.2 g and 17.8 g and 16.6 g
same,body weight of individual mice,"[2]; 20 mg/kg i.p., Day 22",18 g and 19 g and 18.5 g and 17 g and 18.6 g
same,body weight of individual mice,"[2]; 20 mg/kg i.p., Day 25",20.2 g and 19.5 g and 17.7 g and 18.3 g and 17.8 g and 18.8 g
same,body weight of individual mice,"[2]; 20 mg/kg i.p., Day 29",20.4 g and 18.2 g and 19.8 g and 18.7 g and 16 g and 18.5 g
same,body weight of individual mice,"[2]; 20 mg/kg i.p., Day 32",19.9 g and 20 g and 19 g and 19.7 g and 19.6 g
same,body weight of individual mice,"[2]; 50 mg/kg i.p., Day 0",14.7 g and 16.5 g and 17.3 g and 16.4 g and 17.4 g
same,body weight of individual mice,"[2]; 50 mg/kg i.p., Day 4",15.3 g and 18.3 g and 17.7 g and 17.3 g and 17.8 g
same,body weight of individual mice,"[2]; 50 mg/kg i.p., Day 8",14.8 g and 17.7 g and 18.3 g and 18.1 g
same,body weight of individual mice,"[2]; 50 mg/kg i.p., Day 11",16 g and 18 g and 18.7 g and 17.9 g and 18.5 g
same,body weight of individual mice,"[2]; 50 mg/kg i.p., Day 15",15 g and 18 g and 19.1 g and 17.9 g and 18.5 g
same,body weight of individual mice,"[2]; 50 mg/kg i.p., Day 18",15.1 g and 18.4 g and 19.3 g and 19.5 g
same,body weight of individual mice,"[2]; 50 mg/kg i.p., Day 22",15.5 g and 18.9 g and 19.7 g and 19.8 g
same,body weight of individual mice,"[2]; 50 mg/kg i.p., Day 25",16.7 g and 19.1 g and 20.6 g and 19.9 g and 20.4 g
same,body weight of individual mice,"[2]; 50 mg/kg i.p., Day 29",16.3 g and 18.4 g and 19.6 g and 19 g and 20 g
same,body weight of individual mice,"[2]; 50 mg/kg i.p., Day 32",16.7 g and 19.5 g and 21.2 g and 20 g
same,mouse body weights,[2]; five-week continuous administration,no effect on mouse body weights
